Assays:
[1] = tested on: other 109 ubiquitin-related proteins/enzymes; assay: ProtoArray protein microarray probed with 3H-FL118; type: binding, human
Experimental: The flask was then immersed in silicone oil bath at 180° C.-190° C. for 6 hours. The tritium gas was removed. The reaction mixture was dissolved in 1 mL of DMSO and back-exchanged 10× with 50% ethanol. Injected directly to CapCeLL PAK C-18 column (4.6×250 mm), mobile phase 30% CH3CN, 0.1% TFA, flow 1 mL/min, U.V. =200 nm, r.t. =40 min. After purification, total activity was 5 mCi (solid) with a specificity of 5.6 Ci/mmol at a radiochemical purity of >97% for ^3H-FL118. […] The flask was then immersed in silicone oil bath at 190° C. for 24 h. The tritium gas was removed. The reaction mixture was dissolved in 1 mL of DMSO and back-exchanged 10× with 50% ethanol and injected directly to CapCeLL Pak C-18 column (4.6×250 mm), mobile phase 30% CH3CN, 0.1% TFA, […], U.V. =200 nm, r.t. =40 min. After purification total activity was 5 mCi (solid) with a specificity of 16.5 Ci/mmol at a radiochemical purity of ≥81% for ^3H-FL118.
Use of ^3H-FL118 as a radioactive probe to search FL118-binding proteins through screening of human protein microarray (ProtoArray R with 9,400 human proteins, Invitrogen): The study process includes the following steps.
1. Blocking the ProtoArray: (i) Immediately place the mailer containing the Human Protein Microarray v5.0 at 4° C. upon removal from storage at −20° C. and equilibrate the mailer at 4° C. for at least 15 minutes prior to use. […]

22Rv1 CRPC tumors = assay: 22Rv1 CRPC tumor model
DDX5 = DDX5 (Homo sapiens, UniProt P17844); assay: Immunoprecipitation/Western blot of DDX5 in Mia Paca-2 and SW620 cells; type: cell-based; set-up: endogenous in cells; Mia Paca-2 and SW620 (IP/Western)
Chain of DDX5 (P17844 whole entry): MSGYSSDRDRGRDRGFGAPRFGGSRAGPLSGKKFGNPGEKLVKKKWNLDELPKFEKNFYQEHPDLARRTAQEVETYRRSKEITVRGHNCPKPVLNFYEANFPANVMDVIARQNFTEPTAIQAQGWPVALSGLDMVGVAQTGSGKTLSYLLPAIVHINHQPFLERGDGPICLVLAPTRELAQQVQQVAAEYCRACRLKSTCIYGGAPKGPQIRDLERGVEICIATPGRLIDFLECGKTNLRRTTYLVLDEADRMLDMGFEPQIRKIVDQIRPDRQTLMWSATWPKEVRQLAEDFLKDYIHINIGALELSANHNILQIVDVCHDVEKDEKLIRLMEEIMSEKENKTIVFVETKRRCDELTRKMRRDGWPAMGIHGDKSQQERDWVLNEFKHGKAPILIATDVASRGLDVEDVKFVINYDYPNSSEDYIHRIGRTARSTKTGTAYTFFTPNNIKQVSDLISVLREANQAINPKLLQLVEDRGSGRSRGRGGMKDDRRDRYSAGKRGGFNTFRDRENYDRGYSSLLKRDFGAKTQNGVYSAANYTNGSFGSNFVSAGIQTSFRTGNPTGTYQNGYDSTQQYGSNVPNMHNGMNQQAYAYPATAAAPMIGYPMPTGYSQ
Experimental: Up to 10^7 cells for each time point/test were harvested with a scraper in cold PBS buffers and collected by centrifugation at 1000g×5 min and washed with cold PBS once. Cell pellets were lysed in 1 mL cold RIPA lysis buffer containing proteinase inhibitors (refer to Western blots). The cell lysates were precleared with centrifuging 14,000 rpm for 15 min. The resulting supernatants were transferred to a new 1.5 ml tube and incubated with up to 3 μg either DDX5 antibodies or normal IgG antibodies for 1 h at 4° C., followed by incubation with 20-40 μL 50% protein A/G-Agarose slurry overnight at 4° C. on a rocker platform. […]
For frozen prostate cancer tissue specimens and their adjacent non-tumor tissues (if any) obtained from Roswell Park pathology network, 30-50 mg of each tissue in a 1.5 Eppendorf tube containing 500 μL of 2×SDS lysis buffer containing Tris pH 6.8+4% SDS+10% Glycerol were homogenized through ultrasound treatment for 10-15 second per time with 3-6 times until tumor tissue was lysed. […] Proteins of interest were detected using Western Lightning ECL-Plus (Perkin Elmer, Waltham, MA) and visualized by various times (3-120 seconds) of exposure. Actin, tubulin and/or GAPDH were detected as the internal control to normalize total protein loading for each sample.

In the case of `CCC1(O)C(=O)OCc2c1cc1n(c2=O)Cc2cc3cc4c(cc3nc2-1)OCO4` (centres unmarked) [FL118], the “binding to other ubiquitin-related proteins” value [1] is reported as “did not bind”, the antitumor efficacy (22Rv1 CRPC tumors; 5 mg/kg oral, weekly×4) is reported as “completely inhibited 22Rv1 tumor growth” and the “toxicity (clinical observations, body weight)” value (22Rv1 CRPC tumors; therapeutic dose) is reported as “exhibited no toxicity”. For the same compound, the “DDX5 phosphorylation on tyrosine” value (DDX5; 6h) was “eliminates DDX5 phosphorylation” and the DDX5 protein (DDX5; 24h) was “inhibits DDX5 proteins”.
